Reference: US5196327A, “Process for producing antifungal fermentation products and compositions thereof” (Merck & Co., Inc., priority 1991, dated 1993)
Converted amounts (≈) assume the structure as drawn. Like-named read-outs stand apart in the source and are kept apart here.

Key:
[1] = system: panel of representative yeasts, filamentous fungi (molds) and bacteria; experiment: Antifungal disc diffusion assay, panel; format: cell-based; settings: panel of organisms
Source text: (§1) The antifungal activity of the compounds may be detected in an antifungal assay employing disc diffusion methods against a panel of representative yeasts, filamentous fungi (molds) and bacteria.
(§2) The filamentous fungi used in the assay are Cochliobolus miyabeanus, Penicillium sp. (three strains), Aspergillus niger, Trichoderma sp., Phoma sp., Trichoderma lignorum, Fusarium oxysporum, Ustilago maydis, Ceratocystis ulmi, Alternaria solani, Verticillium serrae, Botrytis allii, Scopulariopsis communis, Cephalosporium sp., Cercospora beticola, […], Rhizomucor miehei, Aspergillus flavus and Aspergillus fumigatus.
(§3) The yeasts employed in the assay are Saccharomyces cerevisiae, Candida albicans, […], Candida tropicalis, Candida rugosa, Brettanomyces bruxellensis, Torulospora hansenii, Candida quilliermondi, Candida pseudotropicalis, Torulopsis glabrata, Cryptococcus albidus, and Cryptococcus laurentii.
The bacteria employed in the assay are Streptomyces sp., Acholeplasma laidlawii and Bacillus subtilis.
(§4) For carrying out the assay, seeded assay plates are prepared in the following manner according to the type of assay strain.
(§5) Inocula for filamentous fungi are prepared by scraping the surface of stock plates maintained on potato dextrose agar with a moistened sterile dacron swab. The spores and mycelia are then suspended in 10 milliliters of sterile potato dextrose broth and adjusted to 70 percent transmission at 660 nm.
(§6) Inocula for yeasts and bacterial strains are prepared from overnight broth cultures then diluted into potato dextrose agar to a final concentration of either 40 percent or 70 percent transmission at 660 nm.
When the organism is Acholephasma laidlawii, it is suspended in brain heart infusion broth supplemented with 2.5 percent yeast extract and 20 percent heat inactivated horse serum, and the broth adjusted to a final concentration of 60 percent transmission at 660 nm. […]
(§7) Following incubation, the inhibition zones are measured and recorded. […]

Ustilago maydis = experiment: Antifungal disc diffusion assay; format: cell-based
Source text: as §1, §2, §4, §5
(§8) The seeded agar media thus prepared are dispensed into petri dishes for assays (11 milliliters per dish).
The samples to be tested for production of antifungal agent are applied to 6.2 mm. filter paper discs (25 microliter/disc) and air dried at 24° C. […]
as §7

Aspergillus niger = experiment: Antifungal disc diffusion assay; format: cell-based
Source text: as §1, §2, §3, §4
Inocula for filamentous fungi are prepared by scraping the surface of stock plates maintained on potato dextrose agar with a moistened sterile dacron swab. […]
as §7

[2] = system: Candida albicans (five strains); experiment: Antifungal disc diffusion assay; format: cell-based; settings: five strains of Candida albicans
Source text: as §1, §3, §4, §6
For three strains of Candida albicans and one strain of Saccharomyces cerevisiae, sterile saline is employed in place of potato dextrose broth. Assay plates are prepared by diluting the inoculum into appropriate molten agar medium, cooled to 45° C. to obtain a final concentration of 4 percent.
The seeded agar media thus prepared are dispensed into petri dishes for assays (11 milliliters per dish). […]
as §7

Candida tropicalis = experiment: Antifungal disc diffusion assay; format: cell-based
Source text: as §1, §3, §4, §6, §8
(§9) The samples to be tested for production of antifungal agent are applied to 6.2 mm. filter paper discs (25 microliter/disc) and air dried at 24° C. When the sample to be tested is crude broth, it may be centrifuged prior to application. The discs bearing the material to be tested are then applied employing sterile conditions to the seeded assay plates and the samples rewet with 25 percent sterile aqueous dimethylsulfoxide (25 μl/disc). The assay plates are then incubated at either 28° C. or 37° C. for 24 hours. In one of the assays for Bacillus subtilis, the sample is applied to a disc previously impregnated with 4M potassium chloride at 25 μl/disc and then air dried.
(§10) Following incubation, the inhibition zones are measured and recorded. The measurements are made from the extreme edge where growth differs from the background zone. The growths are noted as to appearance as fuzzy edge and clear center, hazy throughout, slightly hazy, very hazy or ringed.

Torulospora hansenii = experiment: Antifungal disc diffusion assay; format: cell-based
Source text: as §1, §3, §4, §6, §8, §9, §10

Cryptococcus albidus = experiment: Antifungal disc diffusion assay; format: cell-based
Source text: as §1, §3, §4, §6, §8, §9, §10

A. flavus MF0383 = experiment: Agar dilution assay, MIC; format: cell-based, Aspergillus flavus; settings: strain MF0383; yeast nitrogen base dextrose agar; read-out: Minimum Inhibitory Concentration
Experimental: (§11) In separate operations, in vitro antifungal activity determinations were carried out with Compound IB and with Compound IC against a panel of filamentous and yeast-like fungi employing yeast nitrogen base dextrose agar medium. In carrying out the assay, the compound to be tested was solubilized in 10 percent dimethyl sulfoxide (DMSO) supplemented with one drop of Tween 20. Two-fold dilutions were made with sterile distilled water/10% DMSO to obtain final concentrations in the agar dilution assay plates ranging from 64 to 0.06 μg/ml in the operation with Compound IB and from 128 to 0.06 μg/ml in the operation with Compound IC.
(§12) Nystatin (commercially available antifungal agent) was used as a positive antifungal control.

Sac. cerevisiae MY1027 = experiment: Agar dilution assay, MIC; format: cell-based, Saccharomyces cerevisiae; settings: Saccharomyces cerevisiae; strain MY1027; yeast nitrogen base dextrose agar; read-out: Minimum Inhibitory Concentration
Experimental: as §11, §12

Ca. tropicalis MY1011 = experiment: Agar dilution assay, MIC; format: cell-based, Candida tropicalis; settings: strain MY1011; yeast nitrogen base dextrose agar; read-out: Minimum Inhibitory Concentration
Experimental: as §11, §12

Ca. tropicalis MY1012 = experiment: Agar dilution assay, MIC; format: cell-based, Candida tropicalis; settings: strain MY1012; yeast nitrogen base dextrose agar; read-out: Minimum Inhibitory Concentration
Experimental: as §11, §12

[3] = system: Ca. pseudotropicalis MY1040; experiment: Agar dilution assay, MIC; format: cell-based, Candida pseudotropicalis; settings: strain MY1040; yeast nitrogen base dextrose agar; read-out: Minimum Inhibitory Concentration
Experimental: as §11, §12

Ca. krusei MY1020 = experiment: Agar dilution assay, MIC; format: cell-based; settings: strain MY1020; yeast nitrogen base dextrose agar; read-out: Minimum Inhibitory Concentration
Experimental: as §11, §12

[4] = system: Penicillium italicum MF2819; experiment: Agar dilution assay, MIC; format: cell-based; settings: strain MF2819; yeast nitrogen base dextrose agar; read-out: Minimum Inhibitory Concentration
Experimental: as §11, §12

[5] = system: Torulopsis glabrata MY1059; experiment: Agar dilution assay, MIC; format: cell-based; settings: strain MY1059; yeast nitrogen base dextrose agar; read-out: Minimum Inhibitory Concentration
Experimental: as §11, §12

[6] = system: Cryptococcus neoformans MY1051; experiment: Agar dilution assay, MIC; format: cell-based; settings: strain MY1051; yeast nitrogen base dextrose agar; read-out: Minimum Inhibitory Concentration
Experimental: as §11, §12

Candida albicans MY1058 = experiment: Agar dilution assay, MIC; format: cell-based; settings: strain MY1058; yeast nitrogen base dextrose agar; read-out: Minimum Inhibitory Concentration
Experimental: as §11, §12

[7] = system: Aspergillus fumigatus MF4839; experiment: Agar dilution assay, MIC; format: cell-based; settings: strain MF4839; yeast nitrogen base dextrose agar; read-out: Minimum Inhibitory Concentration
Experimental: as §11, §12

Ca. parapsilosis MY1009 = experiment: Agar dilution assay, MIC; format: cell-based; settings: strain MY1009; yeast nitrogen base dextrose agar; read-out: Minimum Inhibitory Concentration
Experimental: as §11, §12

Ca. parapsilosis MY1010 = experiment: Agar dilution assay, MIC; format: cell-based; settings: strain MY1010; yeast nitrogen base dextrose agar; read-out: Minimum Inhibitory Concentration
Experimental: as §11, §12

Ca. guilliermondi MY1019 = experiment: Agar dilution assay, MIC; format: cell-based; settings: strain MY1019; yeast nitrogen base dextrose agar; read-out: Minimum Inhibitory Concentration
Experimental: as §11, §12

Ca. stellatoidea MY1017 = experiment: Agar dilution assay, MIC; format: cell-based; settings: strain MY1017; yeast nitrogen base dextrose agar; read-out: Minimum Inhibitory Concentration
Experimental: as §11, §12

Ca. albicans MY1055 = experiment: Agar dilution assay, MIC; format: cell-based, Candida albicans; settings: strain MY1055; yeast nitrogen base dextrose agar; read-out: Minimum Inhibitory Concentration
Experimental: as §11, §12

Ca. albicans MY1013 = experiment: Agar dilution assay, MIC; format: cell-based, Candida albicans; settings: strain MY1013; yeast nitrogen base dextrose agar; read-out: Minimum Inhibitory Concentration
Experimental: as §11, §12

Ca. albicans MY0992 = experiment: Agar dilution assay, MIC; format: cell-based, Candida albicans; settings: strain MY0992; yeast nitrogen base dextrose agar; read-out: Minimum Inhibitory Concentration
Experimental: as §11, §12

Ca. albicans MY1029 = experiment: Agar dilution assay, MIC; format: cell-based, Candida albicans; settings: strain MY1029; yeast nitrogen base dextrose agar; read-out: Minimum Inhibitory Concentration
Experimental: as §11, §12

Cr. neoformans MY1146 = experiment: Agar dilution assay, MIC; format: cell-based, Cryptococcus neoformans; settings: strain MY1146; yeast nitrogen base dextrose agar; read-out: Minimum Inhibitory Concentration
Experimental: as §11, §12

Ca. rugosa MY1022 = experiment: Agar dilution assay, MIC; format: cell-based, Candida rugosa; settings: strain MY1022; yeast nitrogen base dextrose agar; read-out: Minimum Inhibitory Concentration
Experimental: as §11, §12

`CCCCCCC(O)CCCCCCC=CC(O)C(O)C(O)C(NC(=N)N)C(=O)O` (stereo not shown) [Compound IA, 2-guanidino-3,4,5,14-tetrahydroxy-6-eicosenoic acid] was tested, and the antifungal activity [1] was “good activity against almost all of the organisms”, the antifungal activity ([1]; listed as I-A) was “activity against a number of fungal organisms” and the antifungal activity (Ustilago maydis) was “good activity”. The antifungal activity (Ustilago maydis; listed as I-A) was “especially good activity”, the antifungal activity (Aspergillus niger) was “good activity” and the antifungal activity [2] was “good activity”. The antifungal activity (Candida tropicalis) was “good activity”, the antifungal activity (Torulospora hansenii) was “good activity” and the antifungal activity (Cryptococcus albidus) was “good activity”.

In the case of `CCCCCCC(O)CCCCCCC=CC(O)C(O)C(O)C(N)C(=O)O` (stereo not shown) [Compound IB, 2-amino-3,4,5,14-tetrahydroxy-6-eicosengoic acid], the MIC (A. flavus MF0383) is reported as 64 µg/mL (≈ 164 µM), the antifungal activity [1] is reported as “consistently active against most of the 41 of the filamentous fungi and yeasts” and the MIC (Sac. cerevisiae MY1027) is reported as 16 µg/mL (≈ 41.1 µM). It also gave an MIC (Ca. tropicalis MY1011) of 16 µg/mL (≈ 41.1 µM), an MIC (Ca. tropicalis MY1012) of 2 µg/mL (≈ 5.13 µM) and an MIC [3] of 0.5 µg/mL (≈ 1.28 µM). For the same compound, the MIC (Ca. krusei MY1020) was over 64 µg/mL, the MIC [4] was over 64 µg/mL and the MIC [5] was 16 µg/mL (≈ 41.1 µM). It also gave an MIC [6] of 2 µg/mL (≈ 5.13 µM), an MIC (Candida albicans MY1058) of 16 µg/mL (≈ 41.1 µM) and an MIC [7] of 64 µg/mL (≈ 164 µM). It also gave an MIC (Ca. parapsilosis MY1009) of 32 µg/mL (≈ 82.1 µM), an MIC (Ca. parapsilosis MY1010) of 2 µg/mL (≈ 5.13 µM) and an MIC (Ca. guilliermondi MY1019) of over 64 µg/mL. For the same compound, the MIC (Ca. stellatoidea MY1017) was 16 µg/mL (≈ 41.1 µM), the MIC (Ca. albicans MY1055) was 32 µg/mL (≈ 82.1 µM) and the MIC (Ca. albicans MY1013) was 32 µg/mL (≈ 82.1 µM). The MIC (Ca. albicans MY0992) was 32 µg/mL (≈ 82.1 µM), the MIC (Ca. albicans MY1029) was 64 µg/mL (≈ 164 µM) and the MIC (Cr. neoformans MY1146) was 2 µg/mL (≈ 5.13 µM). For the same compound, the MIC (Ca. rugosa MY1022) was over 64 µg/mL.
